Legend:
rice seedling = conditions: according to Ueno, et al.; cited from earlier work
(S)-ABA 8′-hydroxylase = molecular target: T1, (S)-ABA 8′-hydroxylase (Arabidopsis thaliana, UniProt Q9FH76); conditions: according to Ueno, et al.; cited from earlier work
T1 sequence (Q9FH76 1-463): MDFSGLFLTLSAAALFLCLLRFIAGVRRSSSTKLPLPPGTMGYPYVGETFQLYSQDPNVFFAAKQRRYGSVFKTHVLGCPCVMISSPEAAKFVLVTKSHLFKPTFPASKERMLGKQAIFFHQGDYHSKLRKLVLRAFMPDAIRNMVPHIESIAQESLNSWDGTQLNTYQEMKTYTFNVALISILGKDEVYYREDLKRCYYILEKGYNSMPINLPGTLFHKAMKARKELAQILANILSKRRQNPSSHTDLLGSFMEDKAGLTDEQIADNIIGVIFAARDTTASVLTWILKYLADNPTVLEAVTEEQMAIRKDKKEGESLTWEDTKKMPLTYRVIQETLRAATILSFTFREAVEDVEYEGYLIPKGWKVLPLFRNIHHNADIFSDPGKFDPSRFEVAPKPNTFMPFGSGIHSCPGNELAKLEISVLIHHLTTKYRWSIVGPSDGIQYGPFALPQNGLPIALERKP

[1] = system: Arabidopsis thaliana seed; assay: Seed germination assay for testing Examples 29-46; type: in vivo; design: key: + + + +: The other derivatives were scored by potency relative to S-ABA.; (S)-ABA potency = + + +.; + +: The other derivatives were scored by potency relative to S-ABA.; ++: The other derivatives were scored by potency relative to S-ABA.; +: The other derivatives were scored by potency relative to S-ABA.; −− = no effect; conditions: 0.16-40 μM in 6-well plates, 4 days after vernalization, compared with (S)-ABA
Protocol: (§1) Seed Germination Assay for Testing Examples 29-46 To determine the germination inhibition potency of the (±)-ABA derivatives, germination assays were performed with the model plant Arabidopsis thaliana. Arabidopsis seed was sterilized by soaking in 70% ethanol solution for 5 minutes, followed by 5% sodium hypochlorite solution for 10 minutes. The seeds were then washed three times with sterile water. The test compounds were tested in germination assay at five concentrations (0.16, 0.64, 2.5, 10, and 40 μM) with (S)-ABA (0.16, 0.64 and 2.5 μM) as a control in 6-well plates. DMSO stock solutions of (S)-ABA and the derivatives at 1,000 fold of the test concentrations were prepared. The stock solutions (5 μL) of (S)-ABA and the derivatives were added to the wells in the assay plate with 0.8% agar solutions of ½ Murashige and Skoog media. Sixteen sterile seeds were placed on the solid agar medium at an appropriate spacing. The assay plates were sealed with surgical tape and wrapped in aluminum foil, and the seeds were vernalized at 4° C. for 2 days. The assay plates were incubated in a growth chamber at 22.5° C. under daily light cycles of 16 hours (30 μmol/m^2·sec) for 4 days after the vernalization. The germination inhibition potency of the derivatives was scored and compared with that of (S)-ABA. The results are summarized in Table 2 “Table 2: Arabidopsis seed germination inhibition activity of (±)-ABA derivatives.”

[2] = system: Arabidopsis thaliana seed; assay: Seed germination assay for testing Examples 29-46; type: in vivo; design: key: ++++: The 3′-substituted-derivatives were scored by potency relative to ABA.; (S)-ABA potency = +++.; ++: The 3′-substituted-derivatives were scored by potency relative to ABA.; +: The 3′-substituted-derivatives were scored by potency relative to ABA.; −− = no effect; conditions: 0.16-40 μM in 6-well plates, 4 days after vernalization, compared with (S)-ABA
Protocol: as §1

[3] = system: Arabidopsis thaliana seed; assay: Seed germination assay for testing Examples 29-46; type: in vivo
Protocol: as §1

SMILES | Arabidopsis seed germination inhibition potency [1] | further results
CC1=C(C)C(O)(/C=C/C(C)=C\C(=O)O)C(C)(C)CC1=O (racemic) [(±)-3′-methyl-ABA] |  | activity in rice seedling elongation assay compared to (S)-ABA (rice seedling): equal activity to (S)-ABA; activity in (S)-ABA 8′-hydroxylase inhibition assay compared to (S)-ABA ((S)-ABA 8′-hydroxylase): lower activity than (S)-ABA
CC1=C(CC(C)C)C(=O)CC(C)(C)C1(O)/C=C/C(C)=C\C(=O)O (racemic) [Example 34, (2Z,4E)-5-(1-hydroxy-3-isobutyl-2,6,6-trimethyl-4-oxocyclohex-2-en-1-yl)-3-methylpenta-2,4-dienoic acid] | −− | 
CC1=C(C(C)(C)C)C(=O)CC(C)(C)C1(O)/C=C/C(C)=C\C(=O)O (racemic) [Example 35, (2Z,4E)-5-(3-(tert-butyl)-1-hydroxy-2,6,6-trimethyl-4-oxocyclohex-2-en-1-yl)-3-methylpenta-2,4-dienoic acid] | −− | 
CC1=C(C2(C)CC2)C(=O)CC(C)(C)C1(O)/C=C/C(C)=C\C(=O)O (racemic) [Example 36, (2Z,4E)-5-(1-hydroxy-2,6,6-trimethyl-3-(1-methylcyclopropyl)-4-oxocyclohex-2-en-1-yl)-3-methylpenta-2,4-dienoic acid] | −− | 
CCCCCCC1=C(C)C(O)(/C=C/C(C)=C\C(=O)O)C(C)(C)CC1=O (racemic) [Example 37, (2Z,4E)-5-(3-hexyl-1-hydroxy-2,6,6-trimethyl-4-oxocyclohex-2-en-1-yl)-3-methylpenta-2,4-dienoic acid] | −− | 
CC1=C(C2CCCC2)C(=O)CC(C)(C)C1(O)/C=C/C(C)=C\C(=O)O (racemic) [Example 42, (2Z,4E)-5-(3-cyclopentyl-1-hydroxy-2,6,6-trimethyl-4-oxocyclohex-2-en-1-yl)-3-methylpenta-2,4-dienoic acid] | −− | 
CC1=C(C2CC2F)C(=O)CC(C)(C)C1(O)/C=C/C(C)=C\C(=O)O (racemic) [Example 43, (2Z,4E)-5-(3-(2-fluorocyclopropyl)-1-hydroxy-2,6,6-trimethyl-4-oxocyclohex-2-en-1-yl)-3-methylpenta-2,4-dienoic acid] |  | Arabidopsis seed germination inhibition potency [2]: +++; germination inhibition activity compared to (S)-ABA (in words) [3]: the same level of potency as (S)-ABA
CC1=C(C(F)(F)F)C(=O)CC(C)(C)C1(O)/C=C/C(C)=C\C(=O)O (racemic) [Example 45, (2Z,4E)-5-(1-hydroxy-2,6,6-trimethyl-4-oxo-3-(trifluoromethyl)cyclohex-2-en-1-yl)-3-methylpenta-2,4-dienoic acid] |  | Arabidopsis seed germination inhibition potency [2]: ++++; germination inhibition activity compared to (S)-ABA (in words) [3]: more active than (S)-ABA
CC1=C(c2ccccc2)C(=O)CC(C)(C)C1(O)/C=C/C(C)=C\C(=O)O (racemic) [Example 46, (2Z,4E)-5-(3-hydroxy-2,4,4-trimethyl-6-oxo-3,4,5,6-tetrahydro-[1,1′-biphenyl]-3-yl)-3-methylpenta-2,4-dienoic acid] | −− | 
